According to patent US10729678B2, “Preparation of and formulation comprising a MEK inhibitor” (Array BioPharma Inc., priority 2012, dated 2020):

What was measured:
[1] = Solubility of Compound A in solvents and solvent mixtures; type: physicochemical
Description: Due to this low solubility, it is difficult to perform crystallization by standard cooling methods and to control crystal growth. […] This improvement in solubility contributes to an improvement in the purity profile of the final drug substance.
As discussed above, the crystallization process makes use of anti-solvent cooling system. In step d), water is added to the suspension or the cooled suspension mixture to provide a treated mixture. Water, which in general acts as an anti-solvent (solubility <0.01% over a wide temperature range), also unexpectedly acts as a solvent for Compound A when part of the water/methanol/tetrahydrofuran solvent system.

[2] = system: unresectable, locally advanced or metastatic biliary cancer; conditions: 28 patients with ≤1 prior systemic therapy; oral 60 mg twice daily; after at least 6 weeks of treatment; cited from earlier work
[3] = system: BRAFV600 or NRAS-mutant melanoma; conditions: patients with either BRAFV600 or NRAS-mutant melanoma; cited from earlier work

Cn1cnc2c(F)c(Nc3ccc(Br)cc3F)c(C(=O)NOCCO)cc21 [Compound A, 6-(4-Bromo-2-fluorophenylamino)-7-fluoro-3-methyl-3H-benzoimidazole-5-carboxylic acid (2-hydroxyethyoxy)-amide]
solvent mixture at which maximum solubility is reached ([1]; 65° C., solubility decreases with further addition of water): water (24%), methanol (38%), and tetrahydrofuran (38%)
solubility in most standard solvents ([1]; room temperature): less than 1%
increase of solubility on addition of water to solvent mixture ([1]; tetrahydrofuran and methanol with water, compared to methanol and tetrahydrofuran without water): approximately 50%
solubility in water (anti-solvent) ([1]; water, broad/wide temperature range): < 0.01%
complete regression (number of patients) [2]: 1
partial regression (number of patients) [2]: 1
stable disease diagnoses (number of patients) [2]: 11
effectiveness in treatment of patients [3]: effective
